One assay deals with T1, human CYP11B1 (Homo sapiens, UniProt P15538).
T1 construct: expressed in transfected cells
T1 sequence (P15538 25-503): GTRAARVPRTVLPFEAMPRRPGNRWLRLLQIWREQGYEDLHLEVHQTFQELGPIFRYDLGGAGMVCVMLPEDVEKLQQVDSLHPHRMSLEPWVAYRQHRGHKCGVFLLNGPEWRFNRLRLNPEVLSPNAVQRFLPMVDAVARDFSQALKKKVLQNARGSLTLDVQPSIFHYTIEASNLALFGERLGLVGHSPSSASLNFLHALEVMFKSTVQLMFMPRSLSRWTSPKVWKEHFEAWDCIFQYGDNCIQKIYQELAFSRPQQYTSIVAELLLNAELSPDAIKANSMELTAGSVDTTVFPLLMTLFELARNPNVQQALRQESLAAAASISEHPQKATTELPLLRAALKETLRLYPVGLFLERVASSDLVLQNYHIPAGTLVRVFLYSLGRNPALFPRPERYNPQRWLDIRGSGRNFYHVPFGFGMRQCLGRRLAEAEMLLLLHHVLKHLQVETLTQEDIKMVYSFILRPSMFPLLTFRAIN
In words: G-402 cellular enzyme assay, human CYP11B1 (cortisol release, HTRF). It is filed as cell-based. The conditions noted are these: G-402 cells expressing human CYP11B1; 1 μM Deoxycortisol; 16 h. In outline:
(§1)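 G-402 cells stably expressing human CYP11B2 or CYP11B1, incubated 16 h with compound in DMEM/F12 with 2.5% charcoal-treated FCS plus 1 μM deoxycorticosterone (CYP11B2) or 1 μM deoxycortisol (CYP11B1). Aldosterone or cortisol in supernatant measured by HTRF; EC50 from 4-parameter MMF fit.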
For orientation: Time-resolved FRET reads energy transfer from a long-lived donor to a nearby acceptor.

The target in a further assay is T2, human CYP11B2 (Homo sapiens, UniProt P19099).
T2 construct: expressed in transfected cells
T2 sequence (P19099 25-503): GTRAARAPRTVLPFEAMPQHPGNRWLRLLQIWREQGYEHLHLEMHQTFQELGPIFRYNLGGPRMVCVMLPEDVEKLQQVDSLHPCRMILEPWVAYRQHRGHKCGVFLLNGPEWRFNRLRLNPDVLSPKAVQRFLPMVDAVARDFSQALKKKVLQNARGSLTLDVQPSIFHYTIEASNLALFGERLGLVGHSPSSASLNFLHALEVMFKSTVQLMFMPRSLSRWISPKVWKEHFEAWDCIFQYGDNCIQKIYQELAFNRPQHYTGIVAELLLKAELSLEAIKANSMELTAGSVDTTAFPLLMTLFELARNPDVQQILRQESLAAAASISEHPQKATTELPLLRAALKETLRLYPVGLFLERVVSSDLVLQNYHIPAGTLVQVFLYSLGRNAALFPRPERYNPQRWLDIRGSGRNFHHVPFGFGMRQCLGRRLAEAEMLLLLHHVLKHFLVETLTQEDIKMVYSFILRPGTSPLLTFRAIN
In words: G-402 cellular enzyme assay, human CYP11B2 (aldosterone release, HTRF). The class given is cell-based. As to conditions: G-402 cells expressing human CYP11B2; 1 μM Deoxycorticosterone; 16 h. In a few lines:
as §1

Assay [1] has as its system rats with experimental heart failure. As to conditions: cited from earlier work.
Assay [2] relates to rat model of chronic kidney disease. The conditions noted are these: rat CKD model, cited from earlier work; for renal effects (albuminuria, azotemia, renovascular hypertrophy, glomerular injury, PAI-1 and osteopontin mRNA, tubulointerstitial fibrosis): angiotensin II and high salt.
Assay [3] has as its system patients with primary aldosteronism. The conditions noted are these: oral; cited from earlier work.

With `CCn1cncc1C(=O)c1ccc(N(C)C(=O)OC(C)(C)C)cc1` [Example 88, [4-(3-Ethyl-3H-imidazole-4-carbonyl)-phenyl]-methyl-carbamic acid tert-butyl ester], the EC50 came to 1290 nM on human CYP11B1 and 2200 nM at human CYP11B2.
For `CCn1cncc1C(=O)c1ccc(N(C)C=O)cc1` [Example 89, N-[4-(3-Ethyl-3H-imidazole-4-carbonyl)-phenyl]-N-methyl-formamide], the EC50 stood at 744 nM at human CYP11B1 and 29.4 nM on human CYP11B2.
For `O=C(c1ccc(Cl)cc1)c1cncn1-c1ccc(Cl)cc1` [Example 90, (4-Chloro-phenyl)-[3-(4-chloro-phenyl)-3H-imidazol-4-yl]-methanone], the EC50 on human CYP11B1 was found to be 3620 nM; on human CYP11B2, 2.6 nM.
The like results for `O=C(c1ccc(Cl)c(Cl)c1)c1cncn1-c1ccc(Cl)cc1` [Example 91, [3-(4-Chloro-phenyl)-3H-imidazol-4-yl]-(3,4-dichloro-phenyl)-methanone] were, in that order, 439 nM and 4.2 nM.
For `O=C(c1ccc(Cl)c(F)c1)c1cncn1-c1ccc(Cl)cc1` [Example 92, (4-Chloro-3-fluoro-phenyl)-[3-(4-chloro-phenyl)-3H-imidazol-4-yl]-methanone], the EC50 at human CYP11B1 was 132 nM; on human CYP11B2 it was 3.2 nM.
Regarding `CC(C)n1cncc1C(=O)c1ccc(N(C)C=O)cc1` [Example 93, N-[4-(3-Isopropyl-3H-imidazole-4-carbonyl)-phenyl]-N-methyl-formamide], the results for the EC50 at human CYP11B1 and on human CYP11B2 were 349 nM and 11.7 nM, respectively.
The like results for `N#Cc1ccc(-n2cncc2C(=O)c2ccc(Cl)c(F)c2)cc1` [Example 94, 4-[5-(4-Chloro-3-fluoro-benzoyl)-imidazol-1-yl]-benzonitrile] were, in that order, 84.6 nM and 14.4 nM.
On the same counts, the results for `N#Cc1ccc(-n2cncc2C(=O)c2ccc(Cl)cc2)cc1` [Example 95, 4-[5-(4-Chloro-benzoyl)-imidazol-1-yl]-benzonitrile] are 71.8 nM and 2.2 nM.
The like results for `N#Cc1ccc(-n2cncc2C(=O)c2ccc(Cl)c(Cl)c2)cc1` [Example 96, 4-[5-(3,4-Dichloro-benzoyl)-imidazol-1-yl]-benzonitrile] were, in that order, 199 nM and 5.6 nM.
In the case of `O=C(c1ccc(F)c(F)c1)c1cncn1-c1ccc(Cl)cc1` [Example 97, [3-(4-Chloro-phenyl)-3H-imidazol-4-yl]-(3,4-difluoro-phenyl)-methanone], the EC50 at human CYP11B1 amounted to 74.6 nM; at human CYP11B2, 3.4 nM.
`N#Cc1ccc(C2CCCc3cncn32)cc1` (stereo not drawn) [FAD286]: in assay [1], the “blood pressure and cardiovascular function and structure” value is “improved”; the “kidney function and morphology” value is “improve”. Moreover, in assay [2] (4 weeks of treatment), the plasma aldosterone result is listed as “reduced”. Also, in assay [2], the “renal effects (albuminuria, azotemia, renovascular hypertrophy, glomerular injury, PAI-1 and osteopontin mRNA, tubulointerstitial fibrosis)” value was “prevented”; the “angiotensin II and salt-stimulated PAI-1 mRNA expression in the aorta and the heart” value is recorded as “not”; the “cardiac and aortic medial hypertrophy” value was “attenuated”.
On to `N#Cc1ccc([C@H]2CCc3cncn32)c(F)c1` [LCI699], for which, in assay [3], the blood pressure entry was “mildly decreased”, the circulating aldosterone levels result is on record as “significantly lower” and the hypokalemia entry is on record as “corrected”.
In the case of `CC(=O)S[C@@H]1CC2=CC(=O)CC[C@]2(C)[C@H]2CC[C@@]3(C)[C@@H](CC[C@@]34CCC(=O)O4)[C@H]12` [spironolactone], in assay [2], the “renal effects (albuminuria, azotemia, renovascular hypertrophy, glomerular injury, PAI-1 and osteopontin mRNA, tubulointerstitial fibrosis)” value is listed as “prevented”; the “angiotensin II and salt-stimulated PAI-1 mRNA expression in the aorta and the heart” value is reported as “enhanced”; the “cardiac and aortic medial hypertrophy” value was “attenuated”. Also, the aldosterone result in assay [2] (at 4 and 8 weeks of treatment) is listed as “increased”.

A word on the EC50: it is the midpoint of the concentration-response curve. Low readings indicate greater potency, high ones weaker potency.

The record behind these values is patent US9464058B2 (Hoffmann-La Roche Inc., priority 2012, dated 2016).
